We go through nine molecules from BindingDB's records for PubMed 8863814 (Cyenamid Agricultural Research Center, 1996).

The target of test [1] is T1, Somatostatin receptor type 5 (Rattus norvegicus, UniProt P30938).
T1 sequence (P30938 whole entry): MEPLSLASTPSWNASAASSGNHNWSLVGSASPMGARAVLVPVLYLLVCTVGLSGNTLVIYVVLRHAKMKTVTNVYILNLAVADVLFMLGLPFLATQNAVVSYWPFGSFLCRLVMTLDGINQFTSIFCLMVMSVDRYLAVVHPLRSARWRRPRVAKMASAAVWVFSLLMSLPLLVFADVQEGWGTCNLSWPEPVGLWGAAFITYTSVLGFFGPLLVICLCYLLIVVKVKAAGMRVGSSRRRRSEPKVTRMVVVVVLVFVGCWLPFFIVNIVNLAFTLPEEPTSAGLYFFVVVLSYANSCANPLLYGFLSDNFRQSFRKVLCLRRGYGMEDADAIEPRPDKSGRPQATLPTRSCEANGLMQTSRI

In test [2] the target is Somatostatin receptor type 2 (Rattus norvegicus, UniProt P30680).
The target of test [3] is Somatostatin receptor type 3 (Rattus norvegicus, UniProt P30936).
Test [4] deals with Somatostatin receptor type 1 (Rattus norvegicus, UniProt P28646).

SMILES strings stand for the structures. Where “and” joins values, the source holds several entries; their conditions need not be identical. Identical values can stand only once.

Chain of Somatostatin receptor type 1 (P28646 whole entry): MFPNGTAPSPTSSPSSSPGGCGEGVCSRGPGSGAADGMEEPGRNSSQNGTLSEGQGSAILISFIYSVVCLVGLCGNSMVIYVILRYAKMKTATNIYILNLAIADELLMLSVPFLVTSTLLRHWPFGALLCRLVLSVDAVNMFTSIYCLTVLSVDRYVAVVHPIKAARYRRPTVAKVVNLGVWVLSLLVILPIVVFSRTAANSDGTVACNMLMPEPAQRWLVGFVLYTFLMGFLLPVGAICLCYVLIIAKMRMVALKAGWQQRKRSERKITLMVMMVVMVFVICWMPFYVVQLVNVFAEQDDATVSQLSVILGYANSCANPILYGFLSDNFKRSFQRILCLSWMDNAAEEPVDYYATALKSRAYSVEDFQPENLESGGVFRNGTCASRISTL
Chain of Somatostatin receptor type 2 (P30680 whole entry): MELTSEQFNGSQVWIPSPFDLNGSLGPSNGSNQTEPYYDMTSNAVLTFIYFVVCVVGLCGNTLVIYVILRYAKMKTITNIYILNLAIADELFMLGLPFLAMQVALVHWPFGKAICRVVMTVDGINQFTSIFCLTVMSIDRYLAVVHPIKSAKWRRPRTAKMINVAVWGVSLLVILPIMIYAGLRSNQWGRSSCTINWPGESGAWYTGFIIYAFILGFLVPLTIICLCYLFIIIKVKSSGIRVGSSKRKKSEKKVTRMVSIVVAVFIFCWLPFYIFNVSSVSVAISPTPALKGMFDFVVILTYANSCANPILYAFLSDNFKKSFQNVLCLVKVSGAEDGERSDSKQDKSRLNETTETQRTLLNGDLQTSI
Chain of Somatostatin receptor type 3 (P30936 whole entry): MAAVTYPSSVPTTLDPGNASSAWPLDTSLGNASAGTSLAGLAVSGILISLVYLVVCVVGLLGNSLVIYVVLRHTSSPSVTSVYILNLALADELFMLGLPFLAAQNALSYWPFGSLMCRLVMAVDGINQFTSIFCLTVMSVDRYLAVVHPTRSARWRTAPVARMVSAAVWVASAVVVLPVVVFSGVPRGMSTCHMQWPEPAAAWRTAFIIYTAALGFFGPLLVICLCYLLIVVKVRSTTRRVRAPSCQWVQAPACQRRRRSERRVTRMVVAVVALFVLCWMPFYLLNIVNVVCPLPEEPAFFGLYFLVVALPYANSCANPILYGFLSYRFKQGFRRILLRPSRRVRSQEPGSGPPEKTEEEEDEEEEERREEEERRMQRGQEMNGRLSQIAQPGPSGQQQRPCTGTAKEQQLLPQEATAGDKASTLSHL

For the molecule `C[C@H](N)C(=O)NCC(=O)N[C@@H]1CSSC[C@@H](C(=O)O)NC(=O)[C@H](CO)NC(=O)[C@@H]([C@@H](C)O)NC(=O)[C@H](Cc2ccccc2)NC(=O)[C@@H]([C@@H](C)O)NC(=O)[C@H](CCCCN)NC(=O)[C@@H](Cc2c[nH]c3ccccc23)NC(=O)[C@H](Cc2ccccc2)NC(=O)[C@@H](Cc2ccccc2)NC(=O)[C@H](CC(N)=O)NC(=O)[C@@H](CCCCN)NC1=O`, the Ki in test [1] is 5 nM.
Regarding `CC(=O)N[C@@H](Cc1ccc([N+](=O)[O-])cc1)C(=O)N[C@H]1CSSC[C@@H](C(=O)N[C@@H](Cc2ccc(O)cc2)C(N)=O)NC(=O)[C@H]([C@@H](C)O)NC(=O)[C@H](CCCCN)NC(=O)[C@@H](Cc2c[nH]c3ccccc23)NC(=O)[C@H](Cc2ccc(O)cc2)NC1=O` [AcNH-4-NO2-Phe-c[Cys-Tyr-D-Trp-Lys-Thr-Cys]-Tyr-NH2], the Ki was found to be 0.1 nM in test [2] and 1000 nM in test [3].
Molecule `CC(=O)N[C@H](Cc1ccc([N+](=O)[O-])cc1)C(=O)N[C@H]1CSSC[C@H](C(=O)N[C@@H](C(N)=O)[C@H](C)O)NC(=O)[C@@H](C(C)C)NC(=O)[C@H](CCCCN)NC(=O)[C@@H](Cc2c[nH]c3ccccc23)NC(=O)[C@H](Cc2ccc(O)cc2)NC1=O` [AcNH-4-NO2-Phe-c[Cys-Tyr-D-Trp-Lys-Thr-Cys]-Tyr-NH2] yielded a Ki in test [1] of 2.2 nM.
With `CC(=O)N[C@@H](Cc1ccc([N+](=O)[O-])cc1)C(=O)N[C@@H]1CSSC[C@@H](C(=O)N[C@@H](Cc2ccc(O)cc2)C(N)=O)NC(=O)[C@H]([C@@H](C)O)NC(=O)[C@H](CCCCN)NC(=O)[C@@H](Cc2c[nH]c3ccccc23)NC(=O)[C@H](Cc2ccc(O)cc2)NC1=O` [AcNH-4-NO2-Phe-c[D-Cys-Tyr-D-Trp-Lys-Thr-Cys]-Tyr-NH2], the figures for the Ki in test [2], in test [3] and in test [4] were 0.3 nM, 100 nM and 1000 nM, respectively.
`CC(=O)N[C@H](Cc1ccc([N+](=O)[O-])cc1)C(=O)N[C@@H]1CSSC[C@H](C(=O)N[C@@H](C(N)=O)[C@H](C)O)NC(=O)[C@@H](C(C)C)NC(=O)[C@H](CCCCN)NC(=O)[C@@H](Cc2c[nH]c3ccccc23)NC(=O)[C@H](Cc2ccc(O)cc2)NC1=O` [AcNH-4-NO2-Phe-c[D-Cys-Tyr-D-Trp-Lys-Thr-Cys]-Tyr-NH2] showed a Ki in test [1] of 2.5 nM.
In the case of `CC(C)[C@@H]1NC(=O)[C@H](CCCCN)NC(=O)[C@@H](Cc2c[nH]c3ccccc23)NC(=O)[C@H](Cc2ccc(O)cc2)NC(=O)[C@@H](NC(=O)[C@@H](N)Cc2ccc([N+](=O)[O-])cc2)CSSC[C@@H](C(=O)N[C@@H](Cc2ccc(O)cc2)C(N)=O)NC1=O` [H2N-4-NO2-Phe-c[Cys-Tyr-D-Trp-Lys-Val-Cys]-Tyr-Nh2], the inhibition constant Ki in test [2] is 0.2 nM; in test [3] it was 300 nM; in test [4], 1000 nM.
Take `CC(C)[C@H]1NC(=O)[C@H](CCCCN)NC(=O)[C@@H](Cc2c[nH]c3ccccc23)NC(=O)[C@H](Cc2ccc(O)cc2)NC(=O)[C@@H](NC(=O)[C@@H](N)Cc2ccc([N+](=O)[O-])cc2)CSSC[C@H](C(=O)N[C@@H](C(N)=O)[C@H](C)O)NC1=O` [H2N-4-NO2-Phe-c[Cys-Tyr-D-Trp-Lys-Val-Cys]-Tyr-Nh2]: the Ki in test [1] was 0.1 nM and 0.42 nM.
Consider `CC(C)[C@@H]1NC(=O)[C@H](CCCCN)NC(=O)[C@@H](Cc2c[nH]c3ccccc23)NC(=O)[C@H](Cc2ccc(O)cc2)NC(=O)[C@H](NC(=O)[C@@H](N)Cc2ccc([N+](=O)[O-])cc2)CSSC[C@@H](C(=O)N[C@@H](Cc2ccc(O)cc2)C(N)=O)NC1=O` [H2N-4-NO2-Phe-c[D-Cys-Tyr-D-Trp-Lys-Val-Cys]-Tyr-Nh2], for which the inhibitory constant (Ki) in test [2] worked out at 12.9 nM; in test [3] it was 1000 nM; in test [4], 1000 nM.
Molecule `CC(C)[C@H]1NC(=O)[C@H](CCCCN)NC(=O)[C@@H](Cc2c[nH]c3ccccc23)NC(=O)[C@H](Cc2ccc(O)cc2)NC(=O)[C@H](NC(=O)[C@@H](N)Cc2ccc([N+](=O)[O-])cc2)CSSC[C@H](C(=O)N[C@@H](C(N)=O)[C@H](C)O)NC1=O` [H2N-4-NO2-Phe-c[D-Cys-Tyr-D-Trp-Lys-Val-Cys]-Tyr-Nh2] returned a Ki in test [1] of 18.1 nM.

The term Ki denotes a dissociation constant, usually derived from enzyme kinetics or from competition with a known ligand. Lower therefore signals tighter binding.
